Measured values from patent US20090042898A1, “USE OF COMPOUNDS ACTIVE ON THE SIGMA RECEPTOR FOR THE TREATMENT OF MECANICAL ALLODYNIA” (priority 2004, published 2009).

What was measured:
sigma receptor = settings: Sigma 1 and Sigma 2 for pentazocine; cited from earlier work
[1] = system: mechanical allodynia in mice exposed to the sciatic nerve injury; experiment: Von Frey model in mice exposed to sciatic nerve injury (partial sciatic nerve ligation); assay type: in vivo; settings: FIG. 5, 60 mg/kg subcutaneous, Day 11 after surgery, ipsilateral
Method: The partial sciatic nerve ligation model was used to induce neuropathic pain (Malmberg and Basbaum, Pain 76: 215-222, 1998). This model consists of injury to the sciatic nerve at mid-to high level. Briefly, mice were anaesthetized with halothane (induction: 3%; surgery: 1%) and the common sciatic nerve was exposed at the level of the mid-thigh of the right paw. In control animals (sham-operated mice), an identical dissection was performed on the right paw except that the sciatic nerve was not ligated (Control). Nociceptive sensitivity was then measured was quantified by measuring the hind paw withdrawal response to von Frey filament stimulation as mentioned above. Animals underwent surgery on day 0; 11 days after surgery BD-1063 was injected subcutaneously in one group and the responses to mechanical stimuli were determined by means of the von Frey model in this and the none-treated group (before surgery) a reference value was measured in order to determine a baseline value.

[2] = system: capsaicin-induced allodynia; experiment: Von Frey model, capsaicin-induced mechanical allodynia; assay type: in vivo, mice
Description: The von Frey model is a model for allodynia, stimulated mechanically (mechanical allodynia).
Interest of the model: • The injection of capsaicin to experimental animals produces acute pain followed by allodynia • The mechanisms involved in capsaicin-induced acute pain and allodynia are relatively well known (mainly activation of peripheral nociceptors and sensitization of spinal cord neurons, respectively)
After habituation mice were according to FIG. 1 first treated with the test-compound (or not in controls). Then capsaicin (1% DMSO) is injected into their paw resulting in developing pain in the effected paw. The effected paw is then treated with a mechanical stimulus and the latency time before the paw is withdrawn is measured.
2 well known antisense Oligodesoxynucleotides (ODN) against the sigma 1 receptor (King et al. (1997) Eur J Pharmacol 331:R5-R6 and Ueda et al. (2001) J. Pharmacol. Exp. Ther. 298, 703-710) were synthesized and according to the protocol shown in FIG. 3a) given on 4 consecutive days i.c.v. followed by a wash-out period and von-Frey tests according to example 1.

Structure (SMILES): CC(C)=CCN1CCC2(C)c3cc(O)ccc3CC1C2C (stereo not drawn) [pentazocine]
- affinity to the sigma receptor (sigma receptor): very high affinity

Structure (SMILES): CN1CCN(CCc2ccc(Cl)c(Cl)c2)CC1 [BD-1063, 1-(3,4-dichlorophenethyl)-4-methylpiperazine]
- effect on mechanical allodynia, von Frey model [1]: antagonizes mechanical allodynia in mice exposed to the (ipsilateral) sciatic nerve injury significantly

Structure (SMILES): CCCN(CCC)CCc1ccc(OC)c(OCCc2ccccc2)c1 [NE-100]
- affinity to the sigma receptor (sigma receptor): high affinity
- analgesia in capsaicin-induced allodynia, dose dependency ([2]; FIG. 2a, mice, von Frey filaments): dose dependency of the treatment with NE-100 showing analgesia
- efficacy depending on the force of the von-Frey filaments (0.5 g allodynia vs 4 g general pain) ([2]; FIG. 2b, NE-100 64 mg/kg): effective specifically in allodynia or mechanical allodynia and not general pain

Structure (SMILES): O=C(OCCN1CCOCC1)C1(c2ccccc2)CCCCC1 [PRE-084]
- effect of sigma receptor agonist on the effect of NE-100 ([2]; FIG. 2c, given with NE-100): counteracting the effect of NE-100
